Data from patent US20180361032A1, “IMPLANTABLE ELECTROSPUN PATCHES FOR SITE-DIRECTED DRUG DELIVERY” (The Methodist Hospital, priority 2016, published 2018).

System: inflammation induced by the implant
Assay: Expression of inflammation-related genes in sciatic nerve and surrounding muscle tissue after implant
Type: in vivo, rodent
Settings: release of bupivacaine from the implant
Excerpt: FIG. 13A, FIG. 13B, FIG. 13C, FIG. 13D, and FIG. 13E show the expression of genes related to inflammation in sciatic nerve tissue: TNF-α (FIG. 13A); IL-1β (FIG. 13B); IL-6 (FIG. 13C); PTGS2 (COX-2) (FIG. 13D); and NOS2 (FIG. 13E); respectively; FIG. 14A, FIG. 14B, FIG. 14C, FIG. 14D, and FIG. 14E show the expression of genes related to inflammation in surrounding muscle tissue: COX-2 expression (FIG. 14A); IL-6 expression (FIG. 14B); TNF-α expression (FIG. 14C); IL-1β expression (FIG. 14D); and iNOS expression (FIG. 14E);

Compound: CCCCN1CCCCC1C(=O)Nc1c(C)cccc1C (stereo not shown) [bupivacaine]
- inflammation induced by the implant: decreased the inflammation induced by the implant
